Measurements: ChEMBL document CHEMBL5096211, “Fluorophenylalkyl-substituted cyanoguanidine derivatives as bacteria-selective MATE transporter inhibitors for the treatment of antibiotic-resistant infections” (Bioorg Med Chem, 2022)
Values after ≈ are worked out from the molar mass of the structure shown.

Key:
[1] = target: T1, Multidrug resistance protein HmrM (Haemophilus influenzae) (UniProt P45272); experiment: Inhibition of Haemophilus influenza HmrM transporter expressed in Escherichia coli KAM32 assessed as inhibition of bacterial resistance to norfloxacin by measuring norfloxacin MIC at 100 uM incubated for 18 hrs by microbroth dilution method
T1 sequence (whole entry): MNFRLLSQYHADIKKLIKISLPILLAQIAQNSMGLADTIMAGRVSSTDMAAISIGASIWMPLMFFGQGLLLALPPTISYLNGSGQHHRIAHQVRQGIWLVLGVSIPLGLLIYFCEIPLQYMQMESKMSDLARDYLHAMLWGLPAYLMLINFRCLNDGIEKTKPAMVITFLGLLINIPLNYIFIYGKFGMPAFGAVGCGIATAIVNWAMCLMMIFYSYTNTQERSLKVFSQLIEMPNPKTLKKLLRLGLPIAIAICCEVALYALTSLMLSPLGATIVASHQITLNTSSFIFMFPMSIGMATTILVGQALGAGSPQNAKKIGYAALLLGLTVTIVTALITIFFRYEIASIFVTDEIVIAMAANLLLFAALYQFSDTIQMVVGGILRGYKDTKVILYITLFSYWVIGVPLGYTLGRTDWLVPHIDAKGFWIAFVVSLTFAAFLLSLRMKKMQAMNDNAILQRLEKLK

[2] = target: T1, Multidrug resistance protein HmrM (Haemophilus influenzae); experiment: Inhibition of Haemophilus influenza HmrM transporter expressed in Escherichia coli KAM32 assessed as inhibition of bacterial resistance to norfloxacin by measuring reduction in bacterial growth at 100 uM incubated for 18 hrs by microbroth dilution method
[3] = target: T2, Multidrug and toxin extrusion protein 1 (Homo sapiens, UniProt Q96FL8); experiment: Inhibition of human MATE1; assay type: toxicity
T2 sequence (Q96FL8 whole entry): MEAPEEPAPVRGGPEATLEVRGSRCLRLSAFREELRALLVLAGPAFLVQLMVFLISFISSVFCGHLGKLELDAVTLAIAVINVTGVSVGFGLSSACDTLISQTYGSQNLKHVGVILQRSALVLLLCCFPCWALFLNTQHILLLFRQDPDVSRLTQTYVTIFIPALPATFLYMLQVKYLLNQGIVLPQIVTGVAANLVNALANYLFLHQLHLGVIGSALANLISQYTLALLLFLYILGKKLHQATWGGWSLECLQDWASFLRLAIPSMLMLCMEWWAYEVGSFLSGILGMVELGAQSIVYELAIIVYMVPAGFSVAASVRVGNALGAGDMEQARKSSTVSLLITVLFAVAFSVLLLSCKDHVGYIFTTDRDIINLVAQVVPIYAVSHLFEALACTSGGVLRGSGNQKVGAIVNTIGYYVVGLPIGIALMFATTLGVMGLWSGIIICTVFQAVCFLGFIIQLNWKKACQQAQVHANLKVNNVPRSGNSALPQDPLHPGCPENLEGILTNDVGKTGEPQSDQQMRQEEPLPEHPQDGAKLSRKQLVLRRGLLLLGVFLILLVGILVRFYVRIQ

[4] = target: T3, Multidrug resistance protein MdtK (Escherichia coli (strain K12)) (UniProt P37340); experiment: Inhibition of Escherichia coli MdtK expressed in Escherichia coli KAM32 assessed as inhibition of bacterial growth incubated for 18 hrs by microbroth dilution method
T3 sequence (whole entry): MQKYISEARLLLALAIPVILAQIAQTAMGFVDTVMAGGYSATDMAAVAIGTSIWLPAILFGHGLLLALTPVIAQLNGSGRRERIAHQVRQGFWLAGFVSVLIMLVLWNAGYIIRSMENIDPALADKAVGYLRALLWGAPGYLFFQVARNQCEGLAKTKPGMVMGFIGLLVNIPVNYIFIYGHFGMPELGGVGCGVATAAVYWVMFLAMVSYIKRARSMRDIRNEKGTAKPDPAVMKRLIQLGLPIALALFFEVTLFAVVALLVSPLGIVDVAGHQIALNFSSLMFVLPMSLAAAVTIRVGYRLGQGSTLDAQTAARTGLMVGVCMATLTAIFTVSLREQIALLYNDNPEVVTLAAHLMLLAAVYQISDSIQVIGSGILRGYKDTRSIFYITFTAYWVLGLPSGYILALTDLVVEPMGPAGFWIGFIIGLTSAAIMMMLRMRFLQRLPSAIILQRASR

[5] = test system: Bacteroides thetaiotaomicron; experiment: Inhibition of Bacteroides thetaiotaomicron BexA expressed in Escherichia coli KAM32 assessed as inhibition of bacterial growth incubated for 18 hrs by microbroth dilution method
[6] = test system: HEK293; experiment: Cytotoxicity against human HEK293 cells assessed as reduction in cell viability upto 300 uM incubated for 24 hrs by MTT assay; assay type: toxicity, cell-based; settings: hek293, 24 h

Structure (SMILES)	MIC [1] [µg/mL]	Efficacy [2] [%]	IC50 [3] [µM]	Efficacy [4] [%]	Efficacy [5] [%]	Activity [6]
CN/C(=N\C#N)NCCSCc1cc(F)cc(F)c1	0.04 (≈ 0.141 µM)	50				
Cc1[nH]cnc1CSCCNc1ncccn1			2			
CN/C(=N\C#N)NCCOCc1cccc(F)c1	0.056 (≈ 0.224 µM)	17				
CN/C(=N\C#N)NCCSCc1cccc(C(F)(F)F)c1	0.048 (≈ 0.152 µM)	33				
CN/C(=N\C#N)NCCCc1cccc(F)c1	0.04 (≈ 0.171 µM)	50				
CN/C(=N\C#N)NCCSCc1ccccc1	0.056 (≈ 0.225 µM)	17	> 100			
CN/C(=N\C#N)NCCCCCc1cccc(F)c1	0.02 (≈ 0.0762 µM)	92	> 100	86	0	Non-Toxic
CN/C(=N\C#N)NCCSCc1cccc(OC)c1	0.04 (≈ 0.144 µM)	50				
CN/C(=N\C#N)NCCc1cccc(F)c1	0.056 (≈ 0.254 µM)	17				
CS/C(=N\C#N)NCCSCc1cccc(F)c1	0.032 (≈ 0.113 µM)	67				
N=C(N)NCCSCc1cccc(F)c1	0.048 (≈ 0.211 µM)	33				
CN/C(=N\CCSCc1nc[nH]c1C)NC#N	0.056 (≈ 0.222 µM)	17				
Fc1cccc(CSCCNc2ncccn2)c1	0.056 (≈ 0.213 µM)	17				
CN/C(=N\C#N)NCCSCc1cccc(F)c1	0.032 (≈ 0.12 µM)	67	> 100			
CN/C(=N\C#N)NCCSCc1ccc(F)c(F)c1	0.048 (≈ 0.169 µM)	33				
CN/C(=N\C#N)NCCSCc1ccccc1F	0.04 (≈ 0.15 µM)	50				
CN/C(=N\C#N)NCCSCCc1cccc(F)c1	0.028 (≈ 0.0999 µM)	75		57	0	
CN/C(=N\C#N)NCCSCc1ccc(F)cc1	0.048 (≈ 0.18 µM)	33				
CN/C(=N\C#N)NCCSCc1cccc([N+](=O)[O-])c1	0.032 (≈ 0.109 µM)	67				
CN/C(=N\C#N)NCCCCc1cccc(F)c1	0.024 (≈ 0.0967 µM)	83		57	0	
NCCSCc1cccc(F)c1	0.04 (≈ 0.216 µM)	50				
